Assay results from patent publication US9445998B2, “Pharmaceutical dosage forms comprising a low-solubility drug and a polymer” (Bend Research, Inc., priority 2004, dated 2016).
Where two headings read alike, the source gives them in different places.

Columns and labels:
[1] = format: physicochemical; conditions: not told, 100 μgA/mL, pH 6.5
Method: An Accurel® PP 1E microporous polypropylene membrane was obtained from Membrana GmbH (Wuppertal, Germany). The membrane was washed in isopropyl alcohol and rinsed in methanol in a sonicating bath for 1 minute at ambient temperature, and then allowed to air dry at ambient temperature. The feed side of the membrane was then plasma-treated to render it hydrophilic by placing a sample of the membrane in a plasma chamber. The atmosphere of the plasma chamber was saturated with water vapor at a pressure of 550 mtorr. A plasma was then generated using radio frequency (RF) power inductively coupled into the chamber via annular electrodes at a power setting of 50 watts for 45 seconds. The contact angle of a drop of water placed on the surface of the plasma-treated membrane was less than about 40°. The contact angle of a drop of water placed on the permeate side of the same membrane was greater than about 110°.
A permeate reservoir was formed by gluing a sample of the plasma-treated membrane to a glass tube having an inside diameter of about 1 inch (2.54 cm) using an epoxy-based glue (LOCTITE® E-30CL HYSOL® from Henkel Loctite Corp, Rocky Hill, Conn.). The feed-side of the membrane was oriented so that it was on the outside of the permeate reservoir, while the permeate-side of the membrane was oriented so that it was on the inside of the reservoir. The effective membrane area of the membrane on the permeate reservoir was about 4.9 cm^2. The permeate reservoir was placed into a glass feed reservoir. The feed reservoir was equipped with a magnetic stir bar and the reservoir was placed on a stir plate and the stir rate was set to 100 rpm during the test. The apparatus was placed into a chamber maintained at 37° C. for the duration of the test. Further details of the test apparatus and protocols are presented in co-pending U.S. Patent Application Ser. No. 60/557,897, entitled “Method and Device for Evaluation of Pharmaceutical Compositions,” filed Mar. 30, 2004, incorporated herein by reference.
To form the feed solution, a 1.429 mg (0.5 mgA) sample of CC-1 was weighed into a feed reservoir. (As used herein, “mgA” is milligrams of active drug, reported as the free base, non-salt form, non-hydrate drug molecule.) To this was added 5 mL of the MFD solution previously described, consisting of PBS solution containing 7.3 mM sodium taurocholic acid and 1.4 mM of 1-palmitoyl-2-oleyl-sn-glycero-3-phosphocholine (0.5% NaTC/POPC). […] The feed solution was mixed using a vortex mixer for 1 minute. Before the membrane contacted the feed solution, 5 mL of 60 wt % decanol in decane was placed into the permeate reservoir. Time zero in the test was when the membrane was placed in contact with the feed solution. A […] aliquot of the permeate solution was collected at the times indicated. Samples were then diluted in […] IPA and analyzed using HPLC.
The maximum flux of drug across the membrane (in units of μgA/cm^2-min) was determined by performing a least-squares fit to the data in Table 4 from 0 to 60 minutes to obtain the slope (CC-1: 0.26 μgA/mL-min; Control 1A: 0.13 μgA/mL-min; Control 1B: 0.07 μgA/mL-min), multiplying the slope by the permeate volume (5 mL), and dividing by the membrane area (4.9 cm^2).

Solubility in water = format: physicochemical; conditions: expressed as the free base, listed as free base form
Source text: (§1) An example of a drug having a crystalline highly soluble salt form is ziprasidone. Ziprasidone hydrochloride monohydrate has a solubility of about 10 μgA/mL (expressed as the free base) in water, whereas the free base form has a solubility of less than about 0.2 μgA/mL under the same conditions. Thus, crystalline ziprasidone hydrochloride is a solubility-improved form relative to the crystalline free base form of ziprasidone.

[2] = Dissolution in phosphate buffered saline at pH 6.5 (ziprasidone); format: physicochemical; conditions: PBS pH 6.5, at equilibrium; drug crystallizes as the free base form
Source text: as §1
An appropriate MFD solution is the same PBS solution wherein there is also present 7.3 mM sodium taurocholic acid and 1.4 mM of 1-palmitoyl-2-oleyl-sn-glycero-3-phosphocholine.

[3] = Microcentrifuge dissolution test in MFD solution; format: physicochemical; parameters: AUC: concentration or dose not given beside the values; conditions: for Dissolved Ziprasidone Concentration / AUC: MFD solution pH 6.5, 37° C.; for Dissolved Ziprasidone Concentration: 200 μgA/mL if all dissolved
Method: A microcentrifuge dissolution test was performed to verify that ziprasidone hydrochloride monohydrate is a solubility-improved form of ziprasidone. For this test, a sufficient amount of ziprasidone hydrochloride monohydrate was added to a microcentrifuge test tube so that the concentration of ziprasidone would have been 200 μgA/mL, if all of the ziprasidone had dissolved. The tests were run in duplicate. The tubes were placed in a 37° C. temperature-controlled chamber, and 1.8 mL MFD solution at pH 6.5 and 290 mOsm/kg was added to each respective tube. The samples were quickly mixed using a vortex mixer for about 60 seconds. The samples were centrifuged at 13,000 G at 37° C. for 1 minute prior to collecting a sample. The resulting supernatant solution was then sampled and diluted 1:5 (by volume) with methanol. Samples were analyzed by high-performance liquid chromatography (HPLC) at a UV absorbance of 315 nm using a Zorbax RxC8 Reliance column and a mobile phase consisting of 55% (50 mM potassium dihydrogen phosphate, pH 6.5)/45% acetonitrile. Drug concentration was calculated by comparing UV absorbance of samples to the absorbance of drug standards. The contents of each tube were mixed on the vortex mixer and allowed to stand undisturbed at 37° C. until the next sample was taken. Samples were collected at 4, 10, 20, 40, 90, and 1200 minutes following administration to the MFD solution.
A similar test was performed with the crystalline ziprasidone free base as a control, and a sufficient amount of material was added so that the concentration of compound would have been 200 μgA/mL, if all of the ziprasidone had dissolved.
The concentrations of ziprasidone obtained in these tests were used to determine the maximum dissolved concentration of ziprasidone (“MDC90”) and the area under the concentration-versus-time curve (“AUC90”) during the initial ninety minutes.

Ziprasidone Concentration in Permeate ([1]; 0 min): 0.0 μgA/mL | Maximum Flux of Ziprasidone [1]: 0.07 μgA/cm^2-min | Ziprasidone Concentration in Permeate ([1]; 20 min): 0.0 μgA/mL | Ziprasidone Concentration in Permeate ([1]; 40 min): 3.3 μgA/mL | Ziprasidone Concentration in Permeate ([1]; 60 min): 3.4 μgA/mL | Ziprasidone Concentration in Permeate ([1]; 90 min): 5.4 μgA/mL | Ziprasidone Concentration in Permeate ([1]; 120 min): 6.8 μgA/mL | Ziprasidone Concentration in Permeate ([1]; 180 min): 9.2 μgA/mL | Ziprasidone Concentration in Permeate ([1]; 245 min): 11.5 μgA/mL | Ziprasidone Concentration in Permeate ([1]; 360 min): 14.7 μgA/mL | solubility in water (Solubility in water): less than 0.2 μgA/mL | equilibrium solubility [2]: about 0.2 μgA/mL | Dissolved Ziprasidone Concentration ([3]; time 4 min): 1 μgA/mL | Dissolved Ziprasidone Concentration ([3]; time 10 min): 1 μgA/mL | Dissolved Ziprasidone Concentration ([3]; time 20 min): 1 μgA/mL | Dissolved Ziprasidone Concentration ([3]; time 40 min): 2 μgA/mL | Dissolved Ziprasidone Concentration ([3]; time 90 min): 1 μgA/mL | Dissolved Ziprasidone Concentration ([3]; time 1200 min): 2 μgA/mL | AUC ([3]; up to time 4 min): 3 min-μgA/mL | AUC ([3]; up to time 10 min): 11 min-μgA/mL | AUC ([3]; up to time 20 min): 23 min-μgA/mL | AUC ([3]; up to time 40 min): 51 min-μgA/mL | AUC ([3]; up to time 90 min): 120 min-μgA/mL | AUC ([3]; up to time 1200 min): 2000 min-μgA/mL | AUC90 ([3]; area under the concentration-versus-time curve during the initial ninety minutes, MFD solution): 120 min·µgA/mL | MDC90 ([3]; maximum dissolved concentration during the initial ninety minutes, MFD solution): 2 µgA/mL
SMILES: O=C1Cc2cc(CCN3CCN(c4nsc5ccccc45)CC3)c(Cl)cc2N1 [Ziprasidone Free Base, ziprasidone]
